Test results: the supplement of paper PMC10933113
Structures can show the parent of a compound that is named as a salt. ± gives the uncertainty stated by the source.

Columns and labels:
[1] = tested on: KeratinoSens (HaCaT ARE-luciferase) cells; assay: efficacy of ARE luciferase induction relative to DMSO (% activity over DMSO); higher = stronger induction; conditions: exposure time: 24 h
[2] = tested on: KeratinoSens (HaCaT ARE-luciferase) cells; assay: cytotoxicity AC50 (CellTiter-Fluor viability); higher = less cytotoxic; conditions: exposure time: 24 h
THP-1 = assay: efficacy of IL-8 induction relative to DMSO (% activity); higher = stronger induction; conditions: exposure time: 18 h
[3] = tested on: cysteine peptide Ac-RFAACAA-COOH; assay: AC50 of cysteine peptide concentration-response (direction given by sign of efficacy); higher = less potent; conditions: incubation time: 24 h
[4] = tested on: cysteine peptide Ac-RFAACAA-COOH; assay: efficacy of cysteine peptide change (negative = depletion) (% activity); higher = less depletion; conditions: incubation time: 24 h
[5] = tested on: lysine peptide Ac-RFAAKAA-COOH; assay: efficacy of lysine peptide change (negative = depletion) (% activity); higher = less depletion; conditions: incubation time: 24 h
[6] = tested on: KeratinoSens (HaCaT ARE-luciferase) cells; assay: AC50 of Nrf2/ARE luciferase induction; higher = less potent; conditions: exposure time: 24 h

| SMILES | efficacy of ARE luciferase induction [1] | cytotoxicity AC50 [2] [µM] | efficacy of IL-8 induction (THP-1) | AC50 [3] [µM] | efficacy of cysteine peptide change [4] | efficacy of lysine peptide change [5] | AC50 of Nrf2/ARE luciferase induction [6] [µM] |
| --- | --- | --- | --- | --- | --- | --- | --- |
| C=CC(=O)OCCn1c(=O)n(CCOC(=O)C=C)c(=O)n(CCOC(=O)C=C)c1=O | 47.2 ± 67 | 24.7 ± 9.8 | 20.8 ± 5.9 | 7.11 ± 0.82 | -99.7 ± 6.5 | -0.37 ± 14 | – |
| COc1cc(C(C)C)c2c(c1)S(=O)(=O)N(COc1cc(=O)n3cccc(OCCN4CCCCC4)c3n1)C2=O | 509 ± 320 | – | 54.6 ± 30 | – | 17.7 ± 15 | -2.72 ± 25 | 12.6 |
| O=C(NS(=O)(=O)/C=C/c1ccccc1)c1ccc(F)cc1Cl | 82.9 ± 22 | – | 0 | – | 5 ± 8.7 | 67 ± 6.6 | 38.7 |
| O=C(NS(=O)(=O)/C=C/c1cccs1)c1ccc(F)cc1Br | 56.2 ± 110 | – | 4.43 ± 7.7 | – | -6.04 ± 5.4 | 49.7 ± 18 | 14.1 |
| O=C1C=CC(=O)c2ccccc21 [1,4-NAPHTHOQUINONE*] | -40.2 ± 8.4 | 8.95 ± 1 | 37.7 ± 15 | 0.53 ± 0.2 | -107 ± 5.1 | -25.7 ± 2.1 | – |
| O=C(O)c1cc(O)c2ccccc2c1O [1,4-dihydroxy-2-naphthoic acid*] | -34 ± 5.3 | 13.7 ± 2.3 | 31.2 ± 8.8 | 4.18 ± 2.3 | -105 ± 11 | -107 ± 3.6 | – |
| NC(=S)NC(N)=S [2,4-Dithiobiuret] | 59.4 ± 25 | – | 15.5 ± 4.3 | 3.18 ± 0.37 | -94.5 ± 8 | -0.11 ± 21 | – |
| COc1cc(C(C)(C)C)c(O)c(C(C)(C)C)c1 [2,6-Di-tert-butyl-4-methoxyphenol] | 17.3 ± 33 | – | 0 | 43.4 ± 7.4 | -96.8 ± 3.7 | 3.75 ± 13 | – |
| Cc1ccc(O)c(-n2nc3ccccc3n2)c1 [2-(2H-Benzotriazol-2-yl)-4-methylphenol] | 95.5 ± 93 | – | 0 | – | 3.66 ± 6.3 | -3.82 ± 16 | 22.4 |
| Nc1cc(Cl)ccc1O [2-Amino-4-chlorophenol] | 60.7 ± 16 | 48.3 ± 3.1 | 14 ± 3 | 2.44 ± 1.1 | -103 ± 8.1 | -22.2 ± 9 | – |
| Nc1nnc(-c2ccc([N+](=O)[O-])o2)o1 [2-Amino-5-(5-nitro-2-furyl)-1,3,4-oxadiazole] | 45.2 ± 31 | – | 4.08 ± 7.1 | – | -4.29 ± 3.9 | -11.9 ± 11 | 26.2 |
| Nc1ccc2cc3ccccc3cc2c1 [2-Aminoanthracene] | 25.1 ± 4.7 | – | 22.1 ± 0.99 | 0.19 ± 0.07 | -84.3 ± 8.4 | -21.2 ± 1.8 | – |
| Clc1ccc2c(c1)Nc1ccccc1S2 [2-Chlorophenothiazine] | 28.3 ± 36 | – | 7.79 ± 8 | 4.03 ± 0.75 | -90.5 ± 15 | -12.3 ± 2.6 | – |
| COc1ccccc1N [2-Methoxyaniline hydrochloride] | 68 ± 63 | – | 0 | 45.5 ± 10 | -74 ± 18 | -4.19 ± 7.3 | – |
| Cc1occc1S [2-Methyl-3-furanthiol] | 34.9 ± 23 | – | 14 ± 8.6 | 10.6 ± 2.4 | -117 ± 12 | -108 ± 8.9 | – |
| Nc1ccc2ccccc2c1 [2-Naphthylamine] | 111 ± 32 | 70.8 | 5.33 ± 9.2 | 0.53 ± 0.23 | -65.5 ± 4.2 | -10.1 ± 12 | – |

| SMILES | efficacy of ARE luciferase induction [1] | cytotoxicity AC50 [2] [µM] | efficacy of IL-8 induction (THP-1) | AC50 [3] [µM] | efficacy of cysteine peptide change [4] | efficacy of lysine peptide change [5] | AC50 of Nrf2/ARE luciferase induction [6] [µM] |
| --- | --- | --- | --- | --- | --- | --- | --- |
| N#Cc1nc(Cl)c(Cl)c(Cl)c1Cl [3,4,5,6-Tetrachloro-2-pyridinecarbonitrile] | 38 ± 64 | 10 ± 3.6 | 85.9 ± 32 | 66.8 ± 29 | -49.4 ± 8.4 | 43.7 ± 15 | – |
| Nc1cc(Cl)c(O)c(Cl)c1 [4-Amino-2,6-dichlorophenol] | 99.2 ± 100 | – | 61.6 ± 34 | 0.27 ± 0.14 | -93.8 ± 6.2 | -45.6 ± 7.5 | – |
| CC(C)(C)c1ccc(S)cc1 [4-tert-Butylbenzenethiol] | 28 ± 17 | – | 16.3 ± 5.9 | 44.7 | -88.2 | 10.3 ± 18 | – |
| Cc1ccc(N)cc1O [5-Amino-2-methylphenol] | 59.5 ± 26 | – | 3.18 ± 5.5 | 33.1 ± 20 | -77.2 ± 7.4 | -3.52 ± 14 | – |
| Oc1ccc2cc(SSc3ccc4cc(O)ccc4c3)ccc2c1 [6-Hydroxy-2-naphthyl disulfide] | 146 ± 38 | – | 52.2 ± 9.7 | 0.36 ± 0.04 | -97.3 ± 8 | -144 ± 8 | – |
| CC1=C(/C=C/C(C)=C\C=C\C(C)=C\C(=O)O)C(C)(C)CCC1 [9-cis Retinoic acid] | 47.6 ± 16 | – | 4.41 ± 7.6 | 41.1 ± 17 | -104 ± 23 | -19.7 ± 2.9 | – |
| CC1=C(/C=C/C(C)=C/C=C/C(C)=C/C=O)C(C)(C)CCC1 [13-cis-Retinal (Vitamin A aldehyde)] | -8.45 ± 12 | – | 3.58 ± 6.2 | 38.7 ± 6.6 | -71.2 ± 22 | 3.09 ± 20 | – |
| CC(C)=CCC/C(C)=C\CO [(2Z)-3,7-Dimethylocta-2,6-dien-1-ol] | 19 ± 27 | – | 3.59 ± 6.2 | 62.8 ± 38 | -76.1 ± 14 | 21.2 ± 7.3 | – |
| O=C1c2cccc(O)c2C(=O)c2c(O)cc(CO)cc21 [Aloe-emodin] | 35.9 ± 24 | – | -5.38 ± 9.3 | 1.33 ± 0.83 | -75.7 ± 21 | -80.7 ± 18 | – |
| Nc1cc(-c2ccncc2)c[nH]c1=O [Amrinone] | 11.6 ± 5.4 | – | 11.6 ± 10 | 31 ± 7.8 | -105 ± 8.9 | 2.29 ± 4 | – |
| NNCc1ccccc1 [BENZYLHYDRAZINE HYDROCHLORIDE] | 50.8 ± 24 | – | 3.79 ± 6.6 | 35.6 ± 4.1 | -43 ± 5.2 | – | – |
| O=[N+]([O-])c1ccc(O/N=C/c2cc(Br)c(O)c(Br)c2)c([N+](=O)[O-])c1 [Bromofenoxim] | 12.5 ± 12 | 34.2 ± 2.2 | 0 | 8.35 ± 4.5 | -97 ± 11 | 62.9 ± 22 | – |
| Oc1c(Br)cc(Br)c2cccnc12 [Broxyquinoline] | -33.3 ± 3 | 4 ± 0.46 | 55.7 ± 43 | 2.44 ± 1.8 | -69.9 ± 28 | -14.3 ± 14 | – |
| O=C1C(Cl)=C(Cl)C(=O)C(Cl)=C1Cl [Chloranil] | 32.8 ± 9.5 | 28.2 | 25.9 ± 3.2 | 0.65 ± 0.34 | -73.9 ± 2.3 | -124 ± 7.8 | – |
| ClC1=C(Cl)C2(Cl)C3C(Cl)C(Cl)CC3C1(Cl)C2(Cl)Cl (centres undefined) [Chlordane] | -18.6 ± 53 | 41.4 ± 2.8 | 49.6 ± 10 | 50.3 ± 5.8 | -56.1 ± 16 | -2.38 ± 11 | – |
| COP(=S)(OC)Oc1nc(Cl)c(Cl)cc1Cl [Chlorpyrifos-methyl] | 29.7 ± 29 | – | 0 | 6.5 ± 1.8 | -104.3 ± 0.97 | 32.7 ± 12 | – |
